Assays:
T47D cells = experiment: Cellular growth inhibition assay for T47D cells, CellTiter-Glo; assay type: cell-based, human; conditions: 72 hours treatment, CellTiter-Glo 2.0
Method in brief: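 Growth inhibition as GI50, fitted with four parameters to CellTiter-Glo luminescence after 72 h of compound exposure (0.5% DMSO). Cells were T47D, grown in insulin-supplemented (0.2 units/mL) DMEM with 10% FBS and treated one day post-seeding.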

[1] = test system: T-Rex 293 cell line SC3 cells lacking increased expression of androgen receptor protein; experiment: Cellular growth inhibition, T-Rex 293 SC3 cells lacking increased androgen receptor expression (no doxycycline), CellTiter-Glo; assay type: cell-based; conditions: T-Rex 293 SC3 cells lacking increased androgen receptor expression (not exposed to doxycycline), 72 hours, CellTiter-Glo; read-out: GI50
Method in brief: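 SC3, a T-Rex 293 clone with doxycycline-inducible wild-type androgen receptor, was seeded in phenol red-free DMEM with 10% charcoal-dextran FBS, with or without 10 ng/mL doxycycline. Compound added at 24 h (0.5% DMSO) for 72 h at 37° C. CellTiter-Glo 2.0 luminescence; GI50 from four-parameter fit.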

Structure (SMILES) | GI50 (T47D cells; Homo sapiens) [nM] | GI50 [1] [nM] | GI50 (T47D cells) [nM]
CCS(=O)(=O)Nc1ccc(Oc2cccc(OCCOC3CCN(c4ccc(C(=O)N[C@H]5CC[C@H](Oc6ccc(C#N)c(Cl)c6)CC5)nn4)CC3)c2)c(-c2cn(C)c(=O)c3[nH]ccc23)c1 [I-1, N-[4-(3-chloro-4-cyano-phenoxy)cyclohexyl]-6-[4-[2-[3-[4-(ethylsulfonylamino)-2-(6-methyl-7-oxo-1H-pyrrolo[2,3-c]pyridin-4-yl)phenoxy]phenoxy]ethoxy]-1-piperidyl]pyridazine-3-carboxamide] | < 500 | < 500 | –
CCS(=O)(=O)c1ccc(Oc2cccc(CCCOC3CC4(C3)CN(c3ccc(C(=O)N[C@H]5CC[C@H](Oc6ccc(C#N)c(Cl)c6)CC5)nn3)C4)c2F)c(-c2cn(C)c(=O)c3[nH]ccc23)c1 [I-46] | < 500 | < 500 | –
CCS(=O)(=O)c1ccc(Oc2cccc(CCC3CCN(c4ccc(C(=O)N[C@H]5CC[C@H](Oc6ccc(C#N)c(Cl)c6)CC5)nn4)CC3)c2F)c(-c2cn(C)c(=O)c3[nH]ccc23)c1 [I-51] | < 500 | < 500 | –
CCS(=O)(=O)c1ccc(Oc2cccc(CCCC3CCN(c4ccc(C(=O)N[C@H]5CC[C@H](Oc6ccc(C#N)c(Cl)c6)CC5)nn4)CC3)c2F)c(-c2cn(C)c(=O)c3[nH]ccc23)c1 [I-52] | – | < 500 | < 500
CCS(=O)(=O)c1ccc(Oc2cc(F)c(CCC3CCN(c4ccc(C(=O)N[C@H]5CC[C@H](Oc6ccc(C#N)c(Cl)c6)CC5)nn4)CC3)cc2F)c(-c2cn(C)c(=O)c3[nH]ccc23)c1 [I-59] | – | < 500 | < 500
Cn1cc(-c2cc(C(C)(C)O)ccc2Oc2ccc(OC3CN(c4ccc(C(=O)N[C@H]5CC[C@H](Oc6ccc(C#N)c(Cl)c6)CC5)nn4)C3)cc2)c2cc[nH]c2c1=O [I-95, N-[4-(3-chloro-4-cyano-phenoxy)cyclohexyl]-6-[3-[4-[4-(1-hydroxy-1-methyl-ethyl)-2-(6-methyl-7-oxo-1H-pyrrolo[2,3-c]pyridin-4-yl)phenoxy]phenoxy]azetidin-1-yl]pyridazine-3-carboxamide] | 500 to 1500 | < 500 | –
Cn1cc(-c2cc(C(C)(C)O)ccc2Oc2ccc(CCC3CCN(c4ccc(C(=O)N[C@H]5CC[C@H](Oc6ccc(C#N)c(Cl)c6)CC5)nn4)CC3)cc2)c2cc[nH]c2c1=O [I-102] | – | 500 to 1500 | –
Cn1cc(-c2cc(C(C)(C)O)ccc2Oc2c(F)cc(CCOC3CCN(c4ccc(C(=O)N[C@H]5CC[C@H](Oc6ccc(C#N)c(Cl)c6)CC5)nn4)CC3)cc2F)c2cc[nH]c2c1=O [I-109] | < 500 | < 500 | –
Cn1cc(-c2cc(C(C)(C)O)ccc2O[C@H]2C[C@H](N(C)CC3CCN(c4ccc(C(=O)N[C@H]5CC[C@H](Oc6ccc(C#N)c(Cl)c6)CC5)nn4)CC3)C2)c2cc[nH]c2c1=O [I-158, N-((1r,4r)-4-(3-chloro-4-cyanophenoxy)cyclohexyl)-6-(4-((((1r,3r)-3-(4-(2-hydroxypropan-2-yl)-2-(6-methyl-7-oxo-6,7-dihydro-1H-pyrrolo[2,3-c]pyridin-4-yl)phenoxy)cyclobutyl)(methyl)amino)methyl)piperidin-1-yl)pyridazine-3-carboxamide] | < 500 | < 500 | –
